# Calls of active or inactive are those of the source. No cut-off for these calls is given here.
# Tests used:
# [1] = system: BMDM; test: Inhibition of TNFalpha production in C57Bl/6 mouse BMDM cells at 40 to 80 uM pretreated prior to LPS-stimulation measured on day 7 by ELISA; type: functional, cell-based; conditions: C57BI/6
# [2] = system: BMDM; test: Inhibition of IL-6 production in C57Bl/6 mouse BMDM cells at 2.5 to 80 uM pretreated prior to LPS-stimulation measured on day 7 by ELISA; type: functional, cell-based; conditions: C57BI/6
# [3] = system: BMDM; test: Inhibition of IL-6 production in C57Bl/6 mouse BMDM cells at 10 uM pretreated prior to LPS-stimulation measured on day 7 by ELISA; type: functional, cell-based; conditions: C57BI/6
# [4] = system: BMDM; test: Decrease in IL-1beta production in C57Bl/6 mouse BMDM cells at 2.5 to 80 uM pretreated for 1 hr prior to ATP-stimulation by ELISA; type: functional, cell-based; conditions: C57BI/6
# [5] = system: Staphylococcus epidermidis; test: Antibacterial activity against Staphylococcus epidermidis ATCC 35984 incubated overnight by broth microdilution method; type: functional
# [6] = system: Staphylococcus aureus; test: Antibacterial activity against Staphylococcus aureus ATCC 35556 incubated overnight by broth microdilution method; type: functional
# [7] = system: Pseudomonas aeruginosa; test: Antibacterial activity against Pseudomonas aeruginosa ATCC 27853 at 658 uM incubated overnight by broth microdilution method; type: functional, organism-based
# [8] = system: Staphylococcus epidermidis; test: Antibiofilm activity against Staphylococcus epidermidis ATCC 35984 assessed as inhibition of 12 hrs pre-established biofilm formation at 0.064 umol/well after 20 hrs by safranin staining-based method; type: functional, organism-based
# [9] = system: Staphylococcus epidermidis; test: Antibiofilm activity against Staphylococcus epidermidis ATCC 35984 assessed as 3 hrs pre-established biofilm viable cell count after 20 hrs (reference value: 1 x 10^10 CFU/ml); type: functional
# [10] = system: Staphylococcus epidermidis; test: Antibiofilm activity against Staphylococcus epidermidis ATCC 35984 assessed as 6 hrs pre-established biofilm viable cell count after 20 hrs (reference value: 8.3 x 10^9 CFU/ml); type: functional
# [11] = system: Staphylococcus epidermidis; test: Antibiofilm activity against Staphylococcus epidermidis ATCC 35984 assessed as 12 hrs pre-established biofilm viable cell count after 20 hrs (reference value: 1.2 x 10^10 CFU/ml); type: functional
# [12] = system: Staphylococcus epidermidis; test: Antibiofilm activity against Staphylococcus epidermidis ATCC 35984 assessed as induction of loosely attached live and dead bacteria in 12 hrs pre-established biofilm at 0.064 umol/well after 20 hrs by fluorescence staining-based confocal microscopic analysis; type: functional, organism-based
# [13] = system: Staphylococcus aureus; test: Antibiofilm activity against Staphylococcus aureus ATCC 35556 assessed as inhibition of 24 hrs pre-established biofilm formation at 0.064 umol/well after 20 hrs by safranin staining-based method; type: functional, organism-based
# [14] = system: Staphylococcus epidermidis; test: Antibiofilm activity against Staphylococcus epidermidis ATCC 35984 assessed as 12 hrs pre-established biofilm viable cell count at 0.08 umol/mesh after 20 hrs by […] using compound impregnated in polypropylene mesh (reference value: 8.6 x 10^9 CFU/ml); type: functional
# [15] = system: Staphylococcus epidermidis; test: Antibiofilm activity against Staphylococcus epidermidis ATCC 35984 assessed as 12 hrs pre-established biofilm viable cell count at 0.02 umol/mesh after 20 hrs by […] using compound impregnated in polypropylene mesh (reference value: 8.6 x 10^9 CFU/ml); type: functional
# [16] = system: Staphylococcus epidermidis; test: Antibiofilm activity against Staphylococcus epidermidis ATCC 35984 assessed as 12 hrs pre-established supernatant viable cell count at 0.02 umol/mesh after 20 hrs by […] using compound impregnated in polypropylene mesh (Rvb =7.7 x 10^8 CFU/ml); type: functional
# [17] = system: Staphylococcus epidermidis; test: Antibiofilm activity against Staphylococcus epidermidis ATCC 35984 assessed as 12 hrs pre-established supernatant viable cell count at 0.16 umol/mesh after 20 hrs by […] using compound impregnated in polypropylene mesh (Rvb =7.7 x 10^8 CFU/ml); type: functional
# [18] = system: Staphylococcus epidermidis; test: Antibiofilm activity against Staphylococcus epidermidis ATCC 35984 assessed as reduction in 12 hrs pre-established biofilm viable cell count at 0.16 umol after 20 hrs relative to control; type: functional
# [19] = Induction of apoptosis in C57Bl/6 mouse BMDM cells assessed as early apoptotic cells at 2.5 uM by annexin V-FITC/DAPI staining-based flow cytometric analysis (reference value: 0.49%); type: functional, C57BI/6
# [20] = Induction of apoptosis in C57Bl/6 mouse BMDM cells assessed as late apoptotic cells at 20 uM by annexin V-FITC/DAPI staining-based flow cytometric analysis (reference value: 28.4%); type: functional, C57BI/6
# [21] = Induction of apoptosis in C57Bl/6 mouse BMDM cells assessed as viable cells at 20 uM by annexin V-FITC/DAPI staining-based flow cytometric analysis (reference value: 46.7%); type: functional; conditions: C57BI/6, BMDM, read-out: Activity
# [22] = Induction of apoptosis in C57Bl/6 mouse BMDM cells assessed as early apoptotic cells at 20 uM by annexin V-FITC/DAPI staining-based flow cytometric analysis (reference value: 0.49%); type: functional, C57BI/6
# [23] = Induction of apoptosis in C57Bl/6 mouse BMDM cells assessed as late apoptotic cells at 40 uM by annexin V-FITC/DAPI staining-based flow cytometric analysis (reference value: 28.4%); type: functional, C57BI/6
# [24] = Induction of apoptosis in C57Bl/6 mouse BMDM cells assessed as early apoptotic cells at 40 uM by annexin V-FITC/DAPI staining-based flow cytometric analysis (reference value: 0.49%); type: functional, C57BI/6
# [25] = Induction of apoptosis in C57Bl/6 mouse BMDM cells assessed as dead cells at 80 uM by annexin V-FITC/DAPI staining-based flow cytometric analysis (reference value: 24.4%); type: functional, C57BI/6
# [26] = Induction of apoptosis in C57Bl/6 mouse BMDM cells assessed as late apoptotic cells at 80 uM by annexin V-FITC/DAPI staining-based flow cytometric analysis (reference value: 28.4%); type: functional, C57BI/6
# [27] = Induction of apoptosis in C57Bl/6 mouse BMDM cells assessed as dead cells at 160 uM by annexin V-FITC/DAPI staining-based flow cytometric analysis (reference value: 24.4%); type: functional, C57BI/6
# [28] = Induction of apoptosis in C57Bl/6 mouse BMDM cells assessed as late apoptotic cells at 160 uM by annexin V-FITC/DAPI staining-based flow cytometric analysis (reference value: 28.4%); type: functional, C57BI/6
# [29] = Induction of apoptosis in C57Bl/6 mouse BMDM cells assessed as early apoptotic cells at 160 uM by annexin V-FITC/DAPI staining-based flow cytometric analysis (reference value: 0.49%); type: functional, C57BI/6
smiles,measurement,setting,value
CC(C)=CCC[C@H](C)[C@@H]1CC[C@@H](C)c2c(O)cc(C(=O)O)cc21,inhibition,[1],Active
same,inhibition,[2],Active
same,inhibition,[3],inactive
same,Activity,[4],inactive
same,MBC,[5],82 µM
same,MIC,[5],82 µM
same,MBC,[6],41 µM
same,MIC,[6],41 µM
same,Activity,[7],inactive
same,inhibition,[8],Active
same,Activity,[9],0 CFU/ml
same,Activity,[10],0 CFU/ml
same,Activity,[11],6 ×10³ CFU/ml
same,Activity,[12],Active
same,inhibition,[13],Active
same,Activity,[14],2.7 ×10⁵ CFU/ml
same,Activity,[15],9.1 ×10⁸ CFU/ml
same,Activity,[16],5 ×10⁷ CFU/ml
same,Activity,[17],9 ×10³ CFU/ml
same,Activity,[18],5 log10CFU/ml
same,Activity,[19],2.54%
same,Activity,[20],27%
same,viability at 20 µM,[21],62.2%
same,Activity,[22],4.05%
same,Activity,[23],27.7%
same,Activity,[24],0.99%
same,Activity,[25],23.9%
same,Activity,[26],44.4%
same,Activity,[27],0.63%
same,Activity,[28],3.88%
same,Activity,[29],42.5%
